Reference: ChEMBL document CHEMBL3885881, “DrugMatrix”

Species on record: Rattus norvegicus
Assay: DrugMatrix - Regimen: Daily Repeat
Type: toxicity, organism-based, Sprague-Dawley
Parameters: regimen Daily Repeat, gender Male, age 6-8 weeks
Settings: in vivo, po, route oral GAVAGE, vehicle 100 % WATER; for ABSOLUTE BASOPHIL / ABSOLUTE EOSINOPHIL / ABSOLUTE LYMPHOCYTE / ABSOLUTE MONOCYTE / ABSOLUTE SEGMENTED NEUTROPHIL / BASOPHIL / EOSINOPHIL / ERYTHROCYTE COUNT / HEMATOCRIT / HEMOGLOBIN / LEUKOCYTE COUNT / LYMPHOCYTE / MEAN CORPUSCULAR HEMOGLOBIN / MEAN CORPUSCULAR HEMOGLOBIN CONCENTRATION / MEAN CORPUSCULAR VOLUME / MONOCYTE / NEUTROPHIL / NUCLEATED RED BLOOD CELLS / PLATELET COUNT: tissue Blood; for ALANINE AMINOTRANSFERASE / ALBUMIN / ALKALINE PHOSPHATASE / ASPARTATE AMINOTRANSFERASE / BLOOD UREA NITROGEN / CARBON DIOXIDE / CHLORIDE / CHOLESTEROL / CREATINE PHOSPHOKINASE / CREATININE / GLUCOSE / LACTATE DEHYDROGENASE / LIPASE / PHOSPHORUS / POTASSIUM / SODIUM / TOTAL BILIRUBIN / TOTAL PROTEIN / URIC ACID: tissue Plasma
[1] = 0 mg/kg, 72 h, dose level Control, time 3 day
[2] = 0 mg/kg, 120 h, dose level Control, time 5 day
[3] = 120 mg/kg, 72 h, dose level Low, time 3 day

Nc1ccc(S(=O)(=O)Nc2ccnn2-c2ccccc2)cc1 [SULFAPHENAZOLE]
ABSOLUTE BASOPHIL [1]: 0 CELLS/uL
ABSOLUTE EOSINOPHIL [1]: 20.17 CELLS/uL
ABSOLUTE LYMPHOCYTE [1]: 12371.67 CELLS/uL
ABSOLUTE MONOCYTE [1]: 166 CELLS/uL
ABSOLUTE SEGMENTED NEUTROPHIL [1]: 1292.17 CELLS/uL
BASOPHIL [1]: 0%
EOSINOPHIL [1]: 0.17%
ERYTHROCYTE COUNT [1]: 5.46 x10E6/uL
HEMATOCRIT [1]: 34.38%
HEMOGLOBIN [1]: 13.32 G/DL
LEUKOCYTE COUNT [1]: 13.85 x10E3/uL
LYMPHOCYTE [1]: 88.5%
MEAN CORPUSCULAR HEMOGLOBIN [1]: 24.42 pg
MEAN CORPUSCULAR HEMOGLOBIN CONCENTRATION [1]: 38.7 G/DL
MEAN CORPUSCULAR VOLUME [1]: 63.07 fL
MONOCYTE [1]: 1.17%
NEUTROPHIL [1]: 10.17%
NUCLEATED RED BLOOD CELLS [1]: 0.17 /100WBC
PLATELET COUNT [1]: 1193.5 x10E3/uL
ALANINE AMINOTRANSFERASE [1]: 54.5 u/L
ALBUMIN [1]: 4.02 G/DL
ALKALINE PHOSPHATASE [1]: 346.5 u/L
ASPARTATE AMINOTRANSFERASE [1]: 103.17 u/L
BLOOD UREA NITROGEN [1]: 16.5 mg/dL
CARBON DIOXIDE [1]: 29.83 mmol/L
CHLORIDE [1]: 99.5 MEQ/L
CHOLESTEROL [1]: 72.5 mg/dL
CREATINE PHOSPHOKINASE [1]: 532.5 u/L
CREATININE [1]: 0.18 mg/dL
GLUCOSE [1]: 168.5 mg/dL
LACTATE DEHYDROGENASE [1]: 536.5 u/L
LIPASE [1]: 11.17 u/L
PHOSPHORUS [1]: 11.48 mg/dL
POTASSIUM [1]: 5.95 MEQ/L
SODIUM [1]: 140.5 MEQ/L
TOTAL BILIRUBIN [1]: 0.18 mg/dL
TOTAL PROTEIN [1]: 5.77 G/DL
URIC ACID [1]: 1.42 mg/dL
ABSOLUTE BASOPHIL [2]: 0 CELLS/uL
ABSOLUTE EOSINOPHIL [2]: 22.83 CELLS/uL
ABSOLUTE LYMPHOCYTE [2]: 12202.83 CELLS/uL
ABSOLUTE MONOCYTE [2]: 158 CELLS/uL
ABSOLUTE SEGMENTED NEUTROPHIL [2]: 1283 CELLS/uL
BASOPHIL [2]: 0%
EOSINOPHIL [2]: 0.17%
ERYTHROCYTE COUNT [2]: 5.88 x10E6/uL
HEMATOCRIT [2]: 36.62%
HEMOGLOBIN [2]: 14.07 G/DL
LEUKOCYTE COUNT [2]: 13.67 x10E3/uL
LYMPHOCYTE [2]: 89.5%
MEAN CORPUSCULAR HEMOGLOBIN [2]: 23.95 pg
MEAN CORPUSCULAR HEMOGLOBIN CONCENTRATION [2]: 38.43 G/DL
MEAN CORPUSCULAR VOLUME [2]: 62.28 fL
MONOCYTE [2]: 1.17%
NEUTROPHIL [2]: 9.17%
NUCLEATED RED BLOOD CELLS [2]: 0.17 /100WBC
PLATELET COUNT [2]: 1198 x10E3/uL
ALANINE AMINOTRANSFERASE [2]: 51 u/L
ALBUMIN [2]: 4.3 G/DL
ALKALINE PHOSPHATASE [2]: 343 u/L
ASPARTATE AMINOTRANSFERASE [2]: 89.83 u/L
BLOOD UREA NITROGEN [2]: 17.67 mg/dL
CARBON DIOXIDE [2]: 27.17 mmol/L
CHLORIDE [2]: 98.33 MEQ/L
CHOLESTEROL [2]: 82.5 mg/dL
CREATINE PHOSPHOKINASE [2]: 533.33 u/L
CREATININE [2]: 0.18 mg/dL
GLUCOSE [2]: 152.67 mg/dL
LACTATE DEHYDROGENASE [2]: 220.33 u/L
LIPASE [2]: 11.5 u/L
PHOSPHORUS [2]: 11.25 mg/dL
POTASSIUM [2]: 6.29 MEQ/L
SODIUM [2]: 140.53 MEQ/L
TOTAL BILIRUBIN [2]: 0.22 mg/dL
TOTAL PROTEIN [2]: 6.12 G/DL
URIC ACID [2]: 1.42 mg/dL
ABSOLUTE BASOPHIL [3]: 0 CELLS/uL
ABSOLUTE EOSINOPHIL [3]: 0 CELLS/uL
ABSOLUTE LYMPHOCYTE [3]: 13809.67 CELLS/uL
ABSOLUTE MONOCYTE [3]: 111 CELLS/uL
ABSOLUTE SEGMENTED NEUTROPHIL [3]: 1579.33 CELLS/uL
BASOPHIL [3]: 0%
EOSINOPHIL [3]: 0%
ERYTHROCYTE COUNT [3]: 5.26 x10E6/uL
HEMATOCRIT [3]: 32.3%
HEMOGLOBIN [3]: 13 G/DL
LEUKOCYTE COUNT [3]: 15.5 x10E3/uL
LYMPHOCYTE [3]: 88.67%
MEAN CORPUSCULAR HEMOGLOBIN [3]: 24.77 pg
MEAN CORPUSCULAR HEMOGLOBIN CONCENTRATION [3]: 40.33 G/DL
MEAN CORPUSCULAR VOLUME [3]: 61.43 fL
MONOCYTE [3]: 0.67%
NEUTROPHIL [3]: 10.67%
NUCLEATED RED BLOOD CELLS [3]: 0 /100WBC
PLATELET COUNT [3]: 1150 x10E3/uL
ALANINE AMINOTRANSFERASE [3]: 66 u/L
ALBUMIN [3]: 3.9 G/DL
ALKALINE PHOSPHATASE [3]: 348.67 u/L
ASPARTATE AMINOTRANSFERASE [3]: 94.33 u/L
BLOOD UREA NITROGEN [3]: 14 mg/dL
CARBON DIOXIDE [3]: 29.33 mmol/L
CHLORIDE [3]: 97.67 MEQ/L
CHOLESTEROL [3]: 74.67 mg/dL
CREATINE PHOSPHOKINASE [3]: 287.67 u/L
CREATININE [3]: 0.15 mg/dL
GLUCOSE [3]: 149.33 mg/dL
LACTATE DEHYDROGENASE [3]: 195.67 u/L
LIPASE [3]: 10 u/L
PHOSPHORUS [3]: 11.53 mg/dL
POTASSIUM [3]: 6.01 MEQ/L
SODIUM [3]: 140.83 MEQ/L
TOTAL BILIRUBIN [3]: 0.17 mg/dL
TOTAL PROTEIN [3]: 5.63 G/DL
URIC ACID [3]: 1.33 mg/dL
